This experiment is described as follows: Stage 1 heparin dose-response: CF sputum viscoelasticity by magnetic microrheometry. Details: species or system human. Conditions: 30 minutes at 37°, 10 rad/s, 10 CF sputum samples; FIG. 3; NAL 309 mcg/mL. The procedure:
An experimental programme was conducted to test the mucolytic activity of selected mucoactive agents. The primary objective of this initial protocol is to determine the mucolytic activity (capacity to reduce the viscosity and elasticity and thereby affect clearability) of heparin in cystic fibrosis sputum at concentrations of potential clinical relevance. This constitutes the Stage 1 experiment, below. The secondary objective is to compare heparin with other heparin fractions in a screening test for activity, incorporated in the Stage 2 experiment. […]
The magnetic microrheometer was described by King (King M (1988) “Magnetic microtheometer” Methods in Bronchial Mucology, pp. 73-83.). This instrument is used to measure the bulk viscosity and elasticity of microliter quantities of mucus. […]
When interpreting the results of the studies discussed herein, the primary variable of interest is the decrease in mucus viscoelasticity, expressed as delta log G* (corrected for vehicle treatment). […]
From each of 10 CF sputum samples, up to 6 aliquots of approximately 10-15 mg each were incubated for 30 minutes at 37° with either 0.9% NaCl or with one of the concentrations of heparin, or with N-acetylcysteine L-lysinate (NAL) (309 mcg/mL). Prior to incubation and following it, sputum viscoelasticity at 10 rad/s was determined by magnetic microrheometry. […]

As to N-acetylcysteine L-lysinate [NAL], the “mucolytic effect (fractional decrease in G*)” value was “effective at a lower concentration compared to heparin”.
